Laboratory results: ChEMBL document CHEMBL3784915, “Design and synthesis of novel benzo[d]oxazol-2(3H)-one derivatives bearing 7-substituted-4-enthoxyquinoline moieties as c-Met kinase inhibitors” (Eur J Med Chem, 2016)

Target: Hepatocyte growth factor receptor (Homo sapiens, UniProt P08581)
Assay: Inhibition of N-terminal 6His-tagged human recombinant c-MET expressed in baculovirus infected Sf21 cells using poly Ala-Glu-Lys-Tyr (6:2:5:1) as substrate after 3 hrs by scintillation counting in presence of [33P]-ATP
Conditions: not given

Chain of Hepatocyte growth factor receptor (P08581 whole entry): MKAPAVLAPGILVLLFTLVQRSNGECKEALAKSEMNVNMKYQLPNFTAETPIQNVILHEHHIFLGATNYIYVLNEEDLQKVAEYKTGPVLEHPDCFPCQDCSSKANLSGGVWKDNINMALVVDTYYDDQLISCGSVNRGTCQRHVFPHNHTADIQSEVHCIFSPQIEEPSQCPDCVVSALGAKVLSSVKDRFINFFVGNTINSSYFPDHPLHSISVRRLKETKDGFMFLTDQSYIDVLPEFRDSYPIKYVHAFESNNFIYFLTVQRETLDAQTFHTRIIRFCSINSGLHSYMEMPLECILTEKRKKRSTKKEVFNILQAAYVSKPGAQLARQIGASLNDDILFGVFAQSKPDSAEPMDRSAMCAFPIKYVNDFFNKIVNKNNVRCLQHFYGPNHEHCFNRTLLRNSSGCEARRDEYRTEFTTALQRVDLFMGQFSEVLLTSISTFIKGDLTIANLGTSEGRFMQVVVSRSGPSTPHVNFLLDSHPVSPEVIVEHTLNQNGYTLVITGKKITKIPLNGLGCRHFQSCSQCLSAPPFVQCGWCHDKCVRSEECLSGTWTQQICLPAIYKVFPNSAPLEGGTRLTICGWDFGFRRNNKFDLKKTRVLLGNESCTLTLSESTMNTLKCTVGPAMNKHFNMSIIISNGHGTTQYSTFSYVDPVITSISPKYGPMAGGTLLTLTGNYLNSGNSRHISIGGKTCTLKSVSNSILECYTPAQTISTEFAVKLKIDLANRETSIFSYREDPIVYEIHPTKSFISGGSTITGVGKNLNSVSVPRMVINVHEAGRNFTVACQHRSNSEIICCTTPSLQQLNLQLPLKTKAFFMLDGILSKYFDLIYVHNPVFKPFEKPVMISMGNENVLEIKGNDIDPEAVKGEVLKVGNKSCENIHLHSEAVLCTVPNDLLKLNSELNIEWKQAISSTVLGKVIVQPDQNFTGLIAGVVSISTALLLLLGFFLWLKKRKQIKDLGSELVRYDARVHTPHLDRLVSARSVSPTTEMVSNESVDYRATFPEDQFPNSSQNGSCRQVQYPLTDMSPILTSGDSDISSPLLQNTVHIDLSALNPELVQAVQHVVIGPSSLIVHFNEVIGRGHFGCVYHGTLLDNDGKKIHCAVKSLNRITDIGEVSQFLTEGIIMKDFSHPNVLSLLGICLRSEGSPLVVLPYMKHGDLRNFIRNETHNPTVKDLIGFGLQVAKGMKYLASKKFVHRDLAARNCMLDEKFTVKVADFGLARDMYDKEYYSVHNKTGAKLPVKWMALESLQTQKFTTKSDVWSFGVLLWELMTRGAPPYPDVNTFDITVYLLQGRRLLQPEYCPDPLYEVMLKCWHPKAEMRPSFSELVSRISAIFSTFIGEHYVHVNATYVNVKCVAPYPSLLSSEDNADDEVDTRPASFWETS

Structure (SMILES)	IC50
Cc1ccc2c(c1)oc(=O)n2Cc1cccc(NC(=O)OCCCN2CCOCC2)c1	1600 nM

System: not listed separately
Assay: cells
Conditions: Homo sapiens, EBC-1, 72 h
Description: Cytotoxicity against human EBC1 cells assessed as inhibition of cell proliferation after 72 hrs by sulforhodamine B assay

Structure (SMILES)	IC50
CN1CCN(CCCOC(=O)Nc2cccc(Cn3nc(-n4ccc5ccc(F)cc54)ccc3=O)c2)CC1	672 nM
COC(=O)c1ccc2c(c1)oc(=O)n2CCOc1ccnc2cc(OC)ccc12	> 500 nM
COc1ccc2c(OCCn3c(=O)oc4cc(N)ccc43)ccnc2c1	160 nM
Cc1ccc2c(c1)oc(=O)n2CCOc1ccnc2cc(OCCCN3CCN(C)CC3)ccc12	170 nM
Cc1ccc2c(c1)oc(=O)n2CCOc1ccnc2cc(OCCCCN3CCOCC3)ccc12	330 nM
COCCOc1ccc2c(OCCn3c(=O)oc4cc(C)ccc43)ccnc2c1	> 500 nM
COc1ccc2c(OCCn3c(=O)oc4cc(F)ccc43)ccnc2c1	> 500 nM
Cc1ccc2c(c1)oc(=O)n2CCOc1ccnc2cc(NCCCN3CCOCC3)ccc12	58 nM
Cc1ccc2c(c1)oc(=O)n2CCOc1ccnc2cc(OCCCN3CCCC3)ccc12	> 500 nM
COc1ccc2c(OCCn3c(=O)oc4ccc(C)cc43)ccnc2c1	> 500 nM
Cc1ccc2c(c1)oc(=O)n2CCOc1ccnc2cc(OCCN3CCOCC3)ccc12	120 nM
COc1ccc2c(OCCn3c(=O)oc4ccc(-c5cnn(C)c5)cc43)ccnc2c1	> 500 nM
COC(=O)c1ccc2oc(=O)n(CCOc3ccnc4cc(OC)ccc34)c2c1	> 500 nM
Cn1cc(-c2ccc3c(OCCn4c(=O)oc5cc(-c6cnn(C)c6)ccc54)ccnc3c2)cn1	5 nM
COc1ccc2c(OCCn3c(=O)oc4cc(C)ccc43)ccnc2c1	> 500 nM
COc1ccc2c(OCCn3c(=O)oc4cc(N5CCOCC5)ccc43)ccnc2c1	> 500 nM
COc1ccc2c(OCCn3c(=O)oc4ccc(F)cc43)ccnc2c1	> 500 nM
COc1ccc2c(OCCn3c(=O)oc4cc(-c5cnn(C)c5)ccc43)ccnc2c1	100 nM
COc1ccc2c(OCCn3c(=O)oc4cc(OC)ccc43)ccnc2c1	> 500 nM
Cc1ccc2c(c1)oc(=O)n2CCOc1ccnc2cc(OCCCN3CCOCC3)ccc12	170 nM
Cc1ccc2c(c1)oc(=O)n2Cc1cccc(NC(=O)OCCCN2CCOCC2)c1	1600 nM
Cc1ccc2c(c1)oc(=O)n2CCOc1ccnc2cc(-c3cnn(C)c3)ccc12	35 nM
C[C@@H](Oc1cc(-c2cnn(C3CCNCC3)c2)cnc1N)c1c(Cl)ccc(F)c1Cl [CRIZOTINIB]	44 nM
